Assay results: BindingDB's records for doi:10.7270/Q25M67W6 (n/a, 1992)

Columns and labels:
Serine protease 1 = Serine protease 1 (Homo sapiens, UniProt P07477); experiment: Rate constant of deacylation for trypsin
[1] = molecular target: Urokinase-type plasminogen activator (Homo sapiens, UniProt P00749); experiment: Rate constant of deacylation for Urokinase-type plasminogen activator
Prothrombin = Prothrombin (Homo sapiens, UniProt P00734); experiment: Rate constant of deacylation for thrombin

Chain of Serine protease 1 (P07477 whole entry): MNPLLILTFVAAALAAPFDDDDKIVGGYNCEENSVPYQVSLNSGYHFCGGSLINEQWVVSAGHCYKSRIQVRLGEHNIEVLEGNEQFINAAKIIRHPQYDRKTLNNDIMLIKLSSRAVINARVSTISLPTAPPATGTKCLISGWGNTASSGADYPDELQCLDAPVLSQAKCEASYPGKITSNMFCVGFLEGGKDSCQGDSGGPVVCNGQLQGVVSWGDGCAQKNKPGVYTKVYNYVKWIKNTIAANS

Row | Compound | koff (Serine protease 1) [s⁻¹] | koff [1] [s⁻¹] | koff (Prothrombin) [s⁻¹]
1 | N=C(N)NCc1ccc(C2CC/C(=C\I)OC2=O)cc1 (stereo not drawn) |  |  | 0.000217
2 | C=C1CCC(c2ccc(CNC(=N)N)cc2)C(=O)O1 (stereo not drawn) |  | 0.000733 | 0.0001

More lines, now with the values ahead:

Row | koff (Serine protease 1) [s⁻¹] | koff [1] [s⁻¹] | koff (Prothrombin) [s⁻¹] | Compound
3 | 3.3e-05 | 0.00015 |  | C=C1CC(c2ccc(NC(=N)N)cc2)CC(=C)O1
4 | 0.000333 |  |  | C=C1CC(c2ccc(NC(=N)N)cc2)C/C(=C\I)O1 (stereo not drawn)
5 | 8.3e-05 | 1.3e-05 |  | C=C1O/C(=C/I)C[C@H](c2ccc(NC(=N)N)cc2)[C@H]1NC(=O)c1ccccc1
